Entries after “also recorded” stand apart in the source; their conditions may differ. One block for each compound: values may come before it. Positions of bridges follow the written chain, without caps; N, C: chain ends. Non-standard residues stand in square brackets, D forms with d. Lys(N3) = [N-]=[N+]=NCCCC[C@H](N)C(=O)O; Pra = C#CC[C@H](N)C(=O)O
Columns and labels:
U87 cells [1] = assay: Endocytosis inhibitors treatment, RB-EPP6 uptake by flow cytometry; assay type: cell-based, human; settings: 500 nM RB-EPP6, flow cytometry
Procedure: (§1) Flow cytometry experiments. To measure the RB signal intensity, a NovoCyte flow cytometer (NovoExpress) was used. Quantification of fluorescence intensity in each condition was performed using Novoxpress software. Fifty thousand cells were analyzed for each condition. A green, fluorescent dye used in DNA staining, YOYO was included in all the flow cytometry experiments, serving as a cell live/dead indicator. For the YOYO only group, the cells were treated with trypsin for 5-10 min. After that, cells were fixed in a 1.5 ml centrifuge tube using 4% paraformaldehyde at room temperature for 15 min. Subsequently, fixed cells were washed with PBS once and was permeabilized using 90% cold MeOH on ice for 15 min. Then, cells were incubated with YOYO in phenol-free medium. After half an hour, cells were centrifuged to get rid of YOYO solution and resuspended in fresh phenol-free medium before doing flow cytometry.
Endocytosis inhibitors treatment. U87 Cells were incubated with different endocytosis inhibitors for 1 h respectively. Afterwards, old medium was replaced with medium containing 500 nM RB-EPP 6. After 1 h, a trypsin-EDTA solution (0.05%, Sigma) was added to detach the cells. The cells were collected by centrifugation. Fresh phenol-free medium was added to each condition. Once resuspended, cells were filtered into glass tubes before flow cytometry.

FIBCD1 = target: T1, FIBCD1 (Homo sapiens, UniProt Q8N539); assay: FIBCD1 competition assay; assay type: cell-based; settings: U87 cells, 500 nM RB-EPP6, flow cytometry
T1 construct: endogenous in cells; host or cells: U87 human glioblastoma cells
T1 sequence (Q8N539 1-461): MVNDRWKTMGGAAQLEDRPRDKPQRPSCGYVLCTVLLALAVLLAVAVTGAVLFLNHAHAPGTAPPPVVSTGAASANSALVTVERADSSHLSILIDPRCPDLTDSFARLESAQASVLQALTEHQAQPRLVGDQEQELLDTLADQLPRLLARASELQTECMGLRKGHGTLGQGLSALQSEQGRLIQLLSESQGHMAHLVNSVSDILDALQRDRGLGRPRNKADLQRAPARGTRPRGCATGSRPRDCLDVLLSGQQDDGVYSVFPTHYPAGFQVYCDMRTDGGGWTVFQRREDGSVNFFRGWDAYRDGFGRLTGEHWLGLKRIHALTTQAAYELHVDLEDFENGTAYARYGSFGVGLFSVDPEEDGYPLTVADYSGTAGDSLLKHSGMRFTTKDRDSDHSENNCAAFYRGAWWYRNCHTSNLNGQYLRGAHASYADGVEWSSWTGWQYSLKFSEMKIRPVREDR
Procedure: as §1
FIBCD1 competition assay. U87 cells were incubated with 500 nM RB-EPP 6 and YOYO, together with FIBCD1 ligands, sodium acetate (SA) at 3.1 mM (1×) and acetylmannosamine (AMA) at 1.6 mM (1×) respectively. After 1 h, trypsin was added to detach the cells. Cell pallets were collected by centrifugation. Fresh phenol-free medium was added to each condition. Once resuspended, cells were filtered into glass tubes before flow cytometry.

[2] = Octanol-water partition assay; assay type: physicochemical
Procedure: Octanol-water partition assay. For each RB-EPP, pre-mix 250 μl of octanol with 250 μl of water in a 1.5 ml centrifuge tube. 2 μl of RB-EPP was added to the solution at the concentration of 500 μM. After vortex the mixture, centrifuge at the highest speed for 10 min to separate the octanol and water phases. Samples were collected from both phases and quantified by the Analytical HPLC separately.

U87 cells [3] = assay: Confocal imaging of Dye-EPP uptake in U87 cells; assay type: cell-based, human; settings: for ability to enter the cells (intracellular fluorescence): RB-tagged EPPs, ranking among EPP1-7
Procedure: Confocal Imaging experiments. To image the cells, a Zeiss 880 inverted confocal laser scanning microscope (Carl Zeiss, Germany) was used. Image acquisition and analyses were carried out using the manufacturer's software (ZEN, Carl Zeiss). Quantification of fluorescence intensity in single cells was performed using Fiji software.
Dye-EPP incubation. For general incubation, 300 k U87 cells were seeded in full medium containing 10% FBS and 1% PS in a 35×10 mm petri dish. The cells were incubated overnight in full medium. Stock solution of Dye-EPPs were made in DMSO to reach a concentration of 500 μM. Fresh cell culture medium was used to dilute the stock solution to 500 nM and replace the old medium on day 2. Cells were incubated with RB-EPPs for different time periods, followed by a one-time wash with phenol-free fresh culture medium before measurements.
Concentration gradient experiment. U87 Cells were incubated with RB-EPP 6 at different concentrations (20 nM, 200 nM, 2 μM, 20 μM, 50 μM and 100 μM). After wash with fresh medium once cells were examined by confocal imaging.

a = assay: a
From the text: Table printed on a drawing sheet, FIGURES 7A-7B
The patent's description of the figure: FIGS. 7A-7B. (FIG. 7a) PAMPA assay results of EPPs.
First reader's note: Panel a of the sheet; per the description these are PAMPA permeability results, and panel b is a bar graph of the same values.

different cell lines = assay: RB-EPP6 uptake in different cell lines (confocal imaging); assay type: cell-based
From the text: Cell lines and cell culture. The human glioblastoma cell line (U87) was gifted from Prof. Wei Wei (Institute For Systems Biology, Seattle). The human monocytic leukemia cell line (THP-1) and the human T-cell leukemia cell line (Jurkat) were purchased from ATCC. The human embryonic kidney cell line (HEK-293T), the human osteosarcoma cell line (U2OS), the human breast cancer cell line (MCF-7), the human metastatic melanoma cell lines (IGR-37, IGR-39, WM266-4 and WM115), the human cervical carcinoma cell line (HeLa), and the human myelogenous leukemia cell line (K562) were gifted from Prof. Yinsheng Wang (UC Riverside). The non-tumorigenic epithelial cell line (MCF 10A) and the human breast adenocarcinoma cell line (MDA-MB-231) were gifted from Prof. Wenwan Zhong (UC Riverside). The canine epithelial kidney cell line (MDCK) and the African green monkey kidney cell line (Vero) were gifted from Prof. Hai Rong (UC Riverside). The human colon carcinoma cell line (HCT116) was gifted from Prof. Xuan Liu (UC Riverside). The human liver carcinoma cell line (HEPG2), the rat liver cell line (MCA7777) and the mouse sarcoma cell line (J774A.1) were gifted from Prof. Joseph Genereux (UC Riverside).
Confocal Imaging experiments. […] Quantification of fluorescence intensity in single cells was performed using Fiji software. […]

U87 cells [4] = assay: Heparin binding assay, RB-EPP6 uptake by flow cytometry; assay type: cell-based, human; settings: heparin 10-200 μg/ml
Procedure: as §1, with “cytometry. Heparin binding assay. […] A trypsin-EDTA solution (0.05%, Sigma) was added to detach the cells. The cells were collected by centrifugation. Fresh phenol-free medium was added to each condition. Once resuspended, cells were filtered into glass tubes before flow cytometry.” for “cytometry.”

Compound: O=C(N/N=C/c1ccc(O)c(O)c1)c1cc2ccccc2cc1O [Dynasore]
effect of inhibitor on RB-EPP6 uptake (U87 cells [1]): almost completely suppressed

Compound: O=C1NC(=NS(=O)(=O)c2cccc3ccccc23)S/C1=C\c1ccc(Br)cc1 [Pitstop 2]
effect of inhibitor on RB-EPP6 uptake (U87 cells [1]): did not affect the uptake

Compound: CC(=O)NC1C(O)OC(CO)C(O)C1O (stereo not drawn) [acetylmannosamine]
effect of FIBCD1 ligand on RB-EPP6 uptake (FIBCD1): inhibit RB-EPP6 uptake in a concentration-dependent manner

Compound: C=C1[C@@H](C)[C@H]2[C@H](Cc3ccccc3)NC(=O)[C@]23[C@H](OC(C)=O)/C=C/[C@@](C)(O)C(=O)[C@@H](C)C/C=C/[C@H]3[C@@H]1O [cytochalasin D]
effect of inhibitor on RB-EPP6 uptake (U87 cells [1]): significantly decreased

Compound: CCCCC[C@@H](O)[C@H]1C(=O)O[C@H](C)[C@@H](O)/C=C/C=C/C=C/C=C/C=C(\C)[C@@H](O)C[C@H](O)C[C@H](O)C[C@H](O)C[C@H](O)C[C@H](O)C[C@@H]1O [filipin]
effect of inhibitor on RB-EPP6 uptake (U87 cells [1]): did not inhibit

Compound: c1ccc2c(c1)Nc1ccccc1S2 [phenothazine]
effect of inhibitor on RB-EPP6 uptake (U87 cells [1]): did not affect the uptake

Compound: RB-cy(YTYYT) [RB-EPP3]
hydrophobicity (octanol partitioning) [2]: most hydrophobic
ability to enter the cells (intracellular fluorescence) (U87 cells [3]; U87 cells, confocal imaging): worst

Compound: c[Pra-Ser-Tyr-Tyr-Ser-Tyr-Az4] ([Pra]SYYSY[Lys(N3)]; triazole N-C) [EPP7]
Pe (a): 0.63243 ×10⁻⁶ cm/s

Compound: c[Pra-Thr-Tyr-Tyr-Thr-Tyr-Az4] ([Pra]TYYTY[Lys(N3)]; triazole N-C) [EPP2]
Pe (a): 0.46872 ×10⁻⁶ cm/s

Compound: c[Pra-Tyr-Ser-Tyr-Tyr-Ser-Az4] ([Pra]YSYYS[Lys(N3)]; triazole N-C) [EPP6] [listing 1 of 2 here]
Pe (a): 0.234 ×10⁻⁶ cm/s

Compound: c[Pra-Tyr-Ser-Tyr-Tyr-Ser-Az4] ([Pra]YSYYS[Lys(N3)]; triazole N-C) [EPP6] [listing 2 of 2 here]
uptake in different cell lines (different cell lines): able to enter a wide array of human cancer and noncancer cells, as well as non-human cells
delivery of different fluorescent dye cargo molecules (U87 cells [3]; EPP6 conjugated to different dyes incl. AF555 and AF647, U87 cells): could bring all these cargo molecules into U87 cells
fluorescence intensity in the cells compared with TAT peptide (U87 cells [3]; RB tag, U87 cells, confocal imaging): ~2 ×
ability to enter the cells (intracellular fluorescence) (U87 cells [3]; U87 cells, confocal imaging): highest efficiency
concentration-dependent uptake (fluorescence signal) (U87 cells [3]; U87 cells, 20 nM to 100 μM): higher fluorescence signals across a wide range

Compound: c[Pra-Tyr-Thr-Tyr-Tyr-Thr-Az4] ([Pra]YTYYT[Lys(N3)]; triazole N-C) [EPP3]
Pe (a): 0.11206 ×10⁻⁶ cm/s

Pe (a): 1.8954 ×10⁻⁶ cm/s
Compound: cy(TTTTT) [EPP5]

Pe (a): 0.16201 ×10⁻⁶ cm/s
Compound: cy(YYTYT) [EPP1]

Compound: heparin
effect of heparin on RB-EPP6 uptake (U87 cells [4]): did not affect; also recorded: no inhibitory effect

Compound: methyl-β-cyclodextrin
effect of inhibitor on RB-EPP6 uptake (U87 cells [1]): did not inhibit

— patent US20240083949A1, “CELL PENETRATING PEPTIDE COMPOSITIONS AND METHODS THEREOF” (The Regents of the University of California, priority 2022, published 2024)
